Assay results from article PMC4767442 (Oncotarget, 2015).
Read-outs that look alike come from different tables or passages of the source. Marks after values point to notes of the source that are not given here.

Tests used:
[1] = Pharmacokinetics after single i.v. administration to rats (plasma, UHPLC-MS/MS); type: in vivo, Wistar rats; conditions: for Cmax / Tmax / AUC(0-inf) / clearance / half-life / AUC(0-t) / Vd: male, Wistar, rat, plasma, iv; for Cmax / Tmax / AUC(0-inf) / clearance / half-life / AUC(0-t): 2 mg/kg; for AUC(0-inf): read-out: AUC (zero to infinity); for AUC(0-t): read-out: AUC0-tlast; for Vd: read-out: Vz (apparent volume of distribution); for mean plasma concentration at 6 h relative to Cmax: i.v. 2 mg·kg^−1, 6 h, DpC Group 1
Procedure: Male Wistar rats (230-310 g; n = 22) obtained from Velaz (Czech Republic) were kept in an air-conditioned room under a 12 h light-dark cycle, constant temperature and humidity and had free access to water and a standard laboratory pellet diet for rodents. All animal handling and procedures were approved and supervised by the Animal Welfare Body of the Faculty of Medicine in Hradec Kralove, Charles University in Prague. The investigation conformed to the Guide for the Care and Use of Laboratory Animals.
The rats were anaesthetized with pentobarbital (30 mg^.kg^−1; i.p.) and then the vena jugularis and arteria carotis were prepared for drug administration and blood sample collection, respectively. Both Dp44mT and DpC were dissolved in a mixture of saline, PEG 300 and ethanol (5:4:1, v/v/v) and administered to rats at a dose of 2 mg^.kg^−1, as a slow i.v. bolus. Blood was then collected into EDTA-containing tubes, immediately centrifuged and the plasma kept at −80°C until being analyzed. The blood withdrawn from animals was compensated with an appropriate volume of saline. The animals were sacrificed by pentobarbital overdose.
Initially, for both compounds, rats (n = 2, in each group) were used for the in-vivo investigation of the thiosemicarbazone metabolites and also the preparation of the quantitative analytical method. For the full PK study, 6 rats were used for each compound (group 1) and the blood was sampled at 4, 10, 30, 60, 120, 240 and 360 min post-administration.
Due to the markedly slower elimination of DpC, an additional in-vivo study was performed to appropriately describe the elimination phase of this drug. The conscious rats (n = 8, group 2) were administered DpC (2 mg^.kg^−1) via slow i.v. bolus to the vena saphena. Blood was sampled from the retro-orbital plexus under light ether anesthesia during the following time intervals: 120, 360, 600, 1440 and 1800 min. Plasma samples were treated and analyzed using the analytical methods described below in the Section: UHPLC-MS/MS methods for quantitative assay of the drugs and their metabolites.
Standard non-compartmental analysis was performed implementing Kinetica software (version 4.0, Thermo Fisher Scientific Inc., MA, U.S.A.). […] Maximum concentration (Cmax) and the time to maximum concentration (Tmax) were determined directly from the geometric mean vs. time profiles and from individual profiles. The area under the mean plasma concentration–time curve from zero up to the last sampling interval (AUC0-tlast) was calculated by a combination of the linear and log-linear trapezoidal methods. The area under the mean plasma concentration–time curve from zero up to infinity (AUC) was determined as the sum of the AUC0–tlast and of the extrapolated part (i.e., the ratio of the concentration predicted at the time interval of tlast and the terminal rate constant, λz). The λz was estimated by linear regression of the log transformed concentrations in the terminal part of the curve.
Population pharmacokinetic modeling was performed using non-linear, mixed effect modeling as implemented in Monolix, version 4 (http://wfn.software.monolix.org). Pharmacokinetic parameters were estimated by computing the maximum likelihood estimator of the parameters without any approximation of the model (no linearization). This was performed using the Stochastic Approximation Expectation Maximization (SAEM) algorithm combined with a Markov chain Monte Carlo procedure. The between-animal variability in model parameters were ascribed to an exponential model and a proportional model was used to describe the residual variability. The goodness-of-fit was assessed by using several diagnostic plots (observed and predicted concentrations vs. time; observed concentrations vs. population predictions; weighted residuals vs. time; and weighted residuals vs. predictions). Individual parameter values were obtained as empirical Bayes estimates. […]

[2] = tested on: HL-60 human promyelocytic leukemia cell line; assay: MTT proliferation/viability assay, HL-60; type: cell-based; conditions: 72 h/37°C, mean ± S.D.
Procedure: (§1) The MCF-7 human breast adenocarcinoma cell line was purchased from the European Collection of Cell Cultures (U.K.). The HL-60 human promyelocytic leukemia cell line, HCT116 human colorectal carcinoma cell line, H9c2 rat heart-derived myoblast cell line and 3T3 mouse embryo fibroblast line, were obtained from the American Type Culture Collection (VA, U.S.A.). Cells were cultured in Dulbecco's modified Eagle's medium (DMEM, Lonza, Switzerland) with or without (for MCF-7 cells only) phenol red, supplemented with 10% heat-inactivated fetal bovine serum (FBS; Lonza, Switzerland), 1% penicillin/streptomycin solution (Lonza, Switzerland) and 10 mM HEPES buffer (pH 7.0-7.6; Sigma-Aldrich, Germany). The HL-60 cell line was maintained in RPMI medium (Sigma-Aldrich, Germany) supplemented with 10% heat-inactivated FBS and 1% penicillin/streptomycin solution. All cell lines were cultured in 75 cm^2 tissue culture flasks (Switzerland) at 37°C in a humidified atmosphere of 5% CO2. Sub-confluent cells or, in the case of HL-60 cells, a cell suspension, were sub-cultured every 3-4 days.
(§2) Cells were seeded in 96-well plates for 24 h/37°C at a density of 5,000 (MCF-7), 10,000 (HL-60), 2,000 (HCT116) and 10,000 (3T3 and H9c2) cells/well. For 3T3 and H9c2 cells, the medium was changed to serum- and pyruvate-free DMEM 24 h prior to the experiments. Anti-proliferative and cytotoxicity effects of the compounds were studied at different concentrations after incubations for 72 h/37°C. Viabilities of cells were determined using MTT assays (Sigma-Aldrich, Germany) according to the manufacturer's instructions on a Tecan Infinite 200M plate reader (Tecan, Austria). The proliferation/viability of treated groups was expressed as a percentage of the untreated controls (100%).

[3] = tested on: H9c2 rat heart-derived myoblast cell line; assay: MTT proliferation/viability assay, H9c2; type: cell-based; conditions: 72 h/37°C, mean ± S.D., serum- and pyruvate-free DMEM
Procedure: as §1, §2

[4] = set-up: method as in earlier work; conditions: chronically repeated dosing at high non-optimal levels (Dp44mT, mice, ref 1); DpC at markedly higher doses; cited from earlier work
[5] = rats, i.v. 2 mg·kg^−1, individual values, mean ± S.D., DpC Group 1 only, read-out: Cmax (observed, individual)
[6] = rats, i.v. 2 mg·kg^−1, individual values, mean ± S.D., DpC Group 1 only, read-out: Tmax (observed, individual) (converted)
[7] = rats, i.v. 2 mg·kg^−1, non-compartmental analysis of geometric mean plasma curves, Dp4mT = metabolite after Dp44mT dosing, read-out: Cmax
[8] = rats, i.v. 2 mg·kg^−1, non-compartmental analysis, Dp4mT = metabolite after Dp44mT dosing, read-out: Tmax (converted)
[9] = rats, i.v. 2 mg·kg^−1, non-compartmental analysis
[10] = rats, i.v. 2 mg·kg^−1, non-compartmental analysis, read-out: CL (total plasma clearance) (converted)
[11] = rats, i.v. 2 mg·kg^−1, non-compartmental analysis, read-out: t1/2 (elimination half-life) (converted)
[12] = rats, i.v. 2 mg·kg^−1, two-compartment population model, Bayesian estimates, mean ± S.D.
[13] = rats, i.v. 2 mg·kg^−1, two-compartment population model, Bayesian estimates, mean ± S.D., read-out: CL (total clearance) (converted)
[14] = rats, i.v. 2 mg·kg^−1, two-compartment population model, Bayesian estimates, mean ± S.D., read-out: t1/2alpha (initial distribution half-life)
[15] = rats, i.v. 2 mg·kg^−1, two-compartment population model, Bayesian estimates, mean ± S.D., read-out: t1/2beta (elimination half-life) (converted)
[16] = rats, i.v., population analysis

Row | Cmax [1, 5] [µM] | Tmax [1, 6] [min] | Cmax [1, 7] [µM] | Tmax [1, 8] [min] | AUC(0-inf) [1, 9] [µM·h] | clearance [1, 10] [mL/min/kg] | half-life [1, 11] [min] | AUC(0-inf) [1, 12] [µM·h] | clearance [1, 13] [mL/min/kg] | half-life [1, 14] [min] | half-life [1, 15] [min] | AUC(0-t) [1] [µM·h] | Vd [1, 9] [L/kg] | mean plasma concentration at 6 h relative to Cmax ([1]; rats) | lamdaz (terminal rate constant of elimination) [1, 9] [h⁻¹] | mean extrapolated AUC [1, 9] [%] | Q (intercompartmental clearance) [1, 12] | Vc (volume of central compartment) [1, 12] [L/kg] | Vp (volume of peripheral compartment) [1, 12] | IC50 [2] [nM] | Structure (SMILES) | further results
1 | 3.78 ± 1.33 | 5 | 2.55 | 4 | 1.46 | 79.7 | 132 | 1.66 ± 0.25 | 71.8 | 4.3 ± 0.54 | 102 ± 18 | 1.34 | 15 | less than 2% | 0.318 | 8 | 5.11 ± 0.66 L/h/kg | 1.02 ± 0.12 | 5.44 ± 1.70 L/kg | 2 | CN(C)C(=S)NN=C(c1ccccn1)c1ccccn1 [Dp44mT, di(2-pyridyl)ketone 4,4-dimethyl-3-thiosemicarbazone] | total clearance ([1]; rats, i.v. 2 mg·kg^−1, range of both analyses): 4.3-4.8 L^.h^−1.kg^−1; clearance, fold higher than DpC [1, 16]: 23 fold; dose-corrected total AUC, fold lower than DpC [1, 16]: 28 fold; terminal half-life of elimination (t1/2β), fold shorter than DpC [1, 16]: 6.3 fold; IC50 [3]: 124 ± 49 nM; cardiac fibrosis [4]: cardiac fibrosis was demonstrated
2 | 5.57 ± 0.89 | 4 | 5.51 | 4 | 39.8 | 2.37 | 810 | 37.2 ± 16 | 3.1 | 40 ± 5 | 642 ± 240 | 32.2 | 2.77 | 21% | 0.0515 | 19 | 0.50 ± 0.11^b L·h^−1·kg^−1 | 1.05 ± 0.08 | 1.19 ± 0.68^a L·kg^−1 | 3 ± 1 | CN(C(=S)NN=C(c1ccccn1)c1ccccn1)C1CCCCC1 [DpC, di(2-pyridyl)ketone 4-cyclohexyl-4-methyl-3-thiosemicarbazone] | total exposure (AUC/dose), fold exceeding that of Dp44mT ([1]; rats, i.v.): > 20 fold; dose-corrected individual Cmax, higher than Dp44mT by ([1]; rats, i.v., p<0.01): 80%; IC50 [3]: 85 ± 13 nM; cardiac fibrosis [4]: does not induce cardiac fibrosis
